Results from patent US4755526A, “Method of inhibiting aromatase” (Eli Lilly and Company, priority 1984, dated 1988).
Counter-ions that a name gives are not always drawn. Each block holds one compound with its values, some of them ahead of it.

Columns and labels:
aromatase = target: T1, aromatase (Rattus norvegicus, UniProt P22443); assay: Aromatase inhibition in the rat ovarian microsome assay; format: biochemical; settings: EC50: concentration required to achieve 50% inhibition of aromatase activity, substrate (androstenedione) concentration 0.1 μM
T1 construct: ovarian microsomes are obtained from rats treated with pregnant mares serum gonadotropin; from tissue; host or cells: ovarian microsomes of rats treated with pregnant mares serum gonadotropin
T1 sequence (P22443 1-508): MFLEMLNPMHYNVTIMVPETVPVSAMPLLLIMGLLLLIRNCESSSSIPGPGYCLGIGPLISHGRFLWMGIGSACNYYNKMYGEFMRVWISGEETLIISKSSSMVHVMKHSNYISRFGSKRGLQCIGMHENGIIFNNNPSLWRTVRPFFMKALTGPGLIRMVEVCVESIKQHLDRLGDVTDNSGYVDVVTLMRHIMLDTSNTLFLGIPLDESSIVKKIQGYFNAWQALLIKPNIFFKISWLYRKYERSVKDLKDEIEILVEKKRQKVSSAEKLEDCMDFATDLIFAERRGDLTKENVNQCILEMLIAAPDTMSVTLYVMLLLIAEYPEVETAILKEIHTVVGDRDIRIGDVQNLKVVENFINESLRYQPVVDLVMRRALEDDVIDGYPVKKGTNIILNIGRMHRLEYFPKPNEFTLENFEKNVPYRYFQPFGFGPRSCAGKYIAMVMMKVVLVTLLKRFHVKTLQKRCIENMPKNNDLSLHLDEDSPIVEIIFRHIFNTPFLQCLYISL
Protocol: In this test system, ovarian microsomes are obtained from rats treated with pregnant mares serum gonadotropin. Test compounds are added to reaction vials containing 0.1 μM 4-androstene-3,17-dione, 100,000 dpm 1,2[^3 H]-androstenedione, the microsomes and a NADPH generating system. The concentrations of the inhibitors tested ranged between 0.005 and 10 μM.

estrogen synthesis = assay: Estrogen synthesis inhibition in rats (uterine weight and ovarian steroid concentrations); format: in vivo, female Wistar rats; settings: for Mean Steroid Concentration, estradiol / Mean Steroid Concentration, estriol / Mean Steroid Concentration, estrone: ovaries; for Mean Uterine Weight: testosterone propionate-treated rats
Protocol: Test compounds were administered for seven days either daily by gavage in corn oil or as a component of the diet. Control animals received either corn oil or diet without the test compound. Beginning on the fourth day of the test, all animals treated with the test compound and one half of the control animals were given a subcutaneous injection of 1.0 mg of testosterone propionate in corn oil. The remaining control animals received only an equivalent volume of corn oil.
After two hours, the animals were killed by decapitation. Uteri were isolated, trimmed of extraneous connective tissue, and weighed. […] In the control animals treated with testosterone propionate, estrogens produced by aromatization stimulated the uterus resulting in an increase in weight.
The ovarian steroids were extracted with 1.5 ml of 9:1 (v/v) toluene/ethanol to which had been added 25 to 100 mcg each of unlabelled estradiol, estriol, and estrone, and approximately 1000 dpm of [^14 C]-estradiol. The samples were vortexed, centrifuged at 500×g for 10 minutes, and the organic phase was transferred to a conical vial. Two additional extractions were performed on the residue in the same way. The pooled organic extracts were evaporated for subsequent thin-layer chromatography.
Ovarian proteins were precipitated by the addition of 5.0 ml of ethanol to the remaining aqueous phase. After an overnight incubation at 4° C., the samples were centrifuged at 1500×g for 10 minutes. The supernatant was discarded, and the pellet was dissolved in 0.3N potassium hydroxide.
The organic residue from each above extraction was redissolved in 9:1 (v/v) dichloromethane/methanol. The solution of each sample was applied to separate silica gel thin layer chromatography plates which contained a fluorescent indicator. The plates were developed in the first dimension with 160:38:1.5:0.5 (v/v/v/v) dichloromethane/ethyl acetate/methanol/acetic acid to within 3 cm of the top of the plate. After air-drying, the plate was developed in the second dimension with 180:19:1 (v/v/v) dichloromethane/methanol/ammonium hydroxide. The plate was air-dried and viewed under 254 nm UV light.
The visible spots were marked and the plates were sprayed with primulin (0.001% in 4:1 v/v acetone/water) according to the method of Wright, J. Chromatography, 59, 220 (1971) which allowed for the identification of additional steroids under 365 nm UV light. The spots were scraped from the plate using a glass wool plugged Pasteur pipet attached to a vacuum line. The steroids were eluted directly into scintillation vials by the addition of 0.2 ml of dichloromethane followed by two washes each of 2.0 ml of methanol. The organic solvent was evaporated and 10.0 ml of scintillation fluid (Beckman Ready Solv-NA) was added to the vials. Samples were analyzed by liquid scintillation spectrometry. Corrections were made based on the recoveries of the [^14 C]-steroid. Steroid concentrations are expressed as femtomoles per milligram protein.

[1] = 30 ppm in feed (approximately 3 mg/kg/day)
[2] = 300 ppm in feed (approximately 30 mg/kg/day)
[3] = 200 ppm in feed (approximately 20 mg/kg/day)

Structure (SMILES): Clc1ccc(COc2ccccc2Cn2ccnc2)c(Cl)c1 [1-[(2-[2,4-dichlorobenzyloxy]phenyl)methyl]-1H--imidazole nitrate]
EC50 (aromatase): 68 nM
Mean Steroid Concentration, estradiol (estrogen synthesis; [1]): 1.16 femtomoles per milligram of protein
Mean Steroid Concentration, estriol (estrogen synthesis; [1]): 0.33 femtomoles per milligram of protein
Mean Steroid Concentration, estrone (estrogen synthesis; [1]): 0.31 femtomoles per milligram of protein
Mean Uterine Weight (estrogen synthesis; [1]): 173.5 mg
Mean Steroid Concentration, estradiol (estrogen synthesis; [2]): 1.97 femtomoles per milligram of protein
Mean Steroid Concentration, estriol (estrogen synthesis; [2]): 0.34 femtomoles per milligram of protein
Mean Steroid Concentration, estrone (estrogen synthesis; [2]): 0.30 femtomoles per milligram of protein
Mean Uterine Weight (estrogen synthesis; [2]): 151.4 mg

Structure (SMILES): Clc1ccc(C(c2ccc(Cl)cc2)(c2ccc(Cl)cc2)n2cncn2)cc1 [1-[tris(4-chlorophenyl)methyl]-1H--1,2,4-triazole]
EC50 (aromatase): 420 nM

Structure (SMILES): c1ccc(Cn2ccnc2)cc1 [1-benzylimidazole]
EC50 (aromatase): 2800 nM

Structure (SMILES): c1ccc(C(c2ccccc2)n2cncn2)cc1 [1-diphenylmethyl-1H--1,2,4-triazole]
EC50 (aromatase): > 5000 nM

Structure (SMILES): Clc1ccc(C(c2ccc(Cl)cc2)(c2ccc(Cl)cc2)n2ccnc2)cc1 [1-tris(4-chlorophenyl)methyl-1H--imidazole]
EC50 (aromatase): 270 nM

Structure (SMILES): Cc1nccn1C(c1ccc(Cl)cc1)(c1ccc(Cl)cc1)c1ccc(Cl)cc1 [1-tris(4-chlorophenyl)methyl-2-methyl-1H--imidazole]
EC50 (aromatase): 270 nM

Structure (SMILES): c1ccc(C(c2ccccc2)(c2ccccc2)n2cncn2)cc1 [1-trityl-1H--1,2,4-triazole]
EC50 (aromatase): 310 nM

Structure (SMILES): c1ccc(C(c2ccccc2)(c2ccccc2)n2ccnc2)cc1 [1-tritylimidazole]
EC50 (aromatase): 32 nM
Mean Steroid Concentration, estradiol (estrogen synthesis; [1]): 0.75 femtomoles per milligram of protein
Mean Steroid Concentration, estriol (estrogen synthesis; [1]): 0.44 femtomoles per milligram of protein
Mean Steroid Concentration, estrone (estrogen synthesis; [1]): 0.23 femtomoles per milligram of protein
Mean Uterine Weight (estrogen synthesis; [1]): 135.0 mg
Mean Steroid Concentration, estradiol (estrogen synthesis; [2]): 0.64 femtomoles per milligram of protein
Mean Steroid Concentration, estriol (estrogen synthesis; [2]): 0.28 femtomoles per milligram of protein
Mean Steroid Concentration, estrone (estrogen synthesis; [2]): 0.21 femtomoles per milligram of protein
Mean Uterine Weight (estrogen synthesis; [2]): 122.6 mg

Structure (SMILES): Cc1nccn1C(c1ccccc1)(c1ccccc1)c1ccccc1 [2-methyl-1-tritylimidazole]
EC50 (aromatase): 1300 nM

Structure (SMILES): FC(F)(F)c1cccc(C(c2ccc(Cl)cc2)(c2cccnc2)n2cncn2)c1 (stereo not shown) [3-[(4-chlorophenyl)-1H--1,2,4-triazol-1-yl-(3-trifluoromethylphenyl)methyl]pyridine]
EC50 (aromatase): 98 nM
Mean Steroid Concentration, estradiol (estrogen synthesis; [3]): 0.88 femtomoles per milligram of protein
Mean Steroid Concentration, estriol (estrogen synthesis; [3]): 0.06 femtomoles per milligram of protein
Mean Steroid Concentration, estrone (estrogen synthesis; [3]): 0.01 femtomoles per milligram of protein
Mean Uterine Weight (estrogen synthesis; [3]): 159.2 mg

Structure (SMILES): Clc1ccccc1C(c1cccnc1)(c1ccccc1Cl)n1cncn1 [3-[bis(2-chlorophenyl)-1H--1,2,4-triazol-1-ylmethyl]pyridine]
EC50 (aromatase): 720 nM

Structure (SMILES): Clc1ccccc1C(c1cccnc1)(c1ccccc1Cl)n1ccnc1 [3-[bis(2-chlorophenyl)-1H--imidazol-1-ylmethyl]pyridine]
EC50 (aromatase): 305 nM

Structure (SMILES): c1ccc(C(c2ccccc2)(c2cncnc2)n2cncn2)cc1 [5-(diphenyl-1H--1,2,4-triazol-1-ylmethyl)pyrimidine]
EC50 (aromatase): 825 nM

Further lines, with some results ahead:

EC50 (aromatase): 18 nM
Structure (SMILES): C#CC(c1ccccc1)(c1ccccc1)n1ccnc1 [1-(1,1-diphenyl-2-propynyl)-1H--imidazole]
Mean Steroid Concentration, estradiol (estrogen synthesis; [1]): 1.05 femtomoles per milligram of protein
Mean Steroid Concentration, estriol (estrogen synthesis; [1]): 1.06 femtomoles per milligram of protein
Mean Steroid Concentration, estrone (estrogen synthesis; [1]): 0.00 femtomoles per milligram of protein
Mean Uterine Weight (estrogen synthesis; [1]): 212.3 mg
Mean Steroid Concentration, estradiol (estrogen synthesis; [2]): 1.01 femtomoles per milligram of protein
Mean Steroid Concentration, estriol (estrogen synthesis; [2]): 0.60 femtomoles per milligram of protein
Mean Steroid Concentration, estrone (estrogen synthesis; [2]): 0.00 femtomoles per milligram of protein
Mean Uterine Weight (estrogen synthesis; [2]): 137.6 mg

EC50 (aromatase): 87 nM
Structure (SMILES): Cl.Clc1cccc(Cn2ccnc2)c1Cl [1-(2,3-dichlorobenzyl)imidazole hydrochloride]
Mean Steroid Concentration, estradiol (estrogen synthesis; [1]): 2.09 femtomoles per milligram of protein
Mean Steroid Concentration, estriol (estrogen synthesis; [1]): 0.78 femtomoles per milligram of protein
Mean Steroid Concentration, estrone (estrogen synthesis; [1]): 0.34 femtomoles per milligram of protein
Mean Uterine Weight (estrogen synthesis; [1]): 139.4 mg
Mean Steroid Concentration, estradiol (estrogen synthesis; [2]): 1.12 femtomoles per milligram of protein
Mean Steroid Concentration, estriol (estrogen synthesis; [2]): 0.41 femtomoles per milligram of protein
Mean Steroid Concentration, estrone (estrogen synthesis; [2]): 0.23 femtomoles per milligram of protein
Mean Uterine Weight (estrogen synthesis; [2]): 127.3 mg

EC50 (aromatase): 29 nM
Structure (SMILES): O=[N+]([O-])c1ccc(Cn2ccnc2)cc1 [1-[(4-nitrophenyl)methyl]-1H--imidazole hydrochloride]
Mean Steroid Concentration, estradiol (estrogen synthesis; [1]): 1.16 femtomoles per milligram of protein
Mean Steroid Concentration, estriol (estrogen synthesis; [1]): 0.80 femtomoles per milligram of protein
Mean Steroid Concentration, estrone (estrogen synthesis; [1]): 0.88 femtomoles per milligram of protein
Mean Uterine Weight (estrogen synthesis; [1]): 185.3 mg
Mean Steroid Concentration, estradiol (estrogen synthesis; [2]): 0.79 femtomoles per milligram of protein
Mean Steroid Concentration, estriol (estrogen synthesis; [2]): 1.11 femtomoles per milligram of protein
Mean Steroid Concentration, estrone (estrogen synthesis; [2]): 1.19 femtomoles per milligram of protein
Mean Uterine Weight (estrogen synthesis; [2]): 147.2 mg

EC50 (aromatase): 22 nM
Structure (SMILES): CCOc1ccccc1C(C1CCCCC1)n1ccnc1 (stereo not shown) [1-[cyclohexyl(2-ethoxyphenyl)methyl]-1H--imidazole hydrochloride]
Mean Steroid Concentration, estradiol (estrogen synthesis; [1]): 1.30 femtomoles per milligram of protein
Mean Steroid Concentration, estriol (estrogen synthesis; [1]): 0.36 femtomoles per milligram of protein
Mean Steroid Concentration, estrone (estrogen synthesis; [1]): 0.24 femtomoles per milligram of protein
Mean Uterine Weight (estrogen synthesis; [1]): 149.0 mg
Mean Steroid Concentration, estradiol (estrogen synthesis; [2]): 1.11 femtomoles per milligram of protein
Mean Steroid Concentration, estriol (estrogen synthesis; [2]): 0.28 femtomoles per milligram of protein
Mean Steroid Concentration, estrone (estrogen synthesis; [2]): 0.20 femtomoles per milligram of protein
Mean Uterine Weight (estrogen synthesis; [2]): 96.6 mg

EC50 (aromatase): 64 nM
Structure (SMILES): COc1ccc(C(c2ccccc2)(c2ccc(OC)cc2)n2ccnc2)cc1 [1-[α,α-bis(4-methoxyphenyl)benzyl]imidazole]

EC50 (aromatase): 40 nM
Structure (SMILES): Fc1ccc(C(c2ccccc2)(c2ccc(F)cc2)n2ccnc2)cc1 [1-bis(4-fluorophenyl)phenylmethyl]-1H--imidazole]

EC50 (aromatase): < 50 nM
Structure (SMILES): c1ccc(C(c2ccccc2)(c2ccccn2)n2ccnc2)cc1 [2-(1H--imidazol-1-yldiphenylmethyl)pyridine]

EC50 (aromatase): < 50 nM
Structure (SMILES): CSc1ccc(C(c2ccccc2)(c2cccnc2)n2ccnc2)cc1 (stereo not shown) [3-(1H--imidazol-1-yl-[4-(methylthio)phenyl]phenylmethyl)pyridine]

EC50 (aromatase): 195 nM
Structure (SMILES): CSc1ccc(C(c2ccccc2)(c2cccnc2)n2cncn2)cc1 (stereo not shown) [3-([4-(methylthio)phenyl]phenyl-1H--1,2,4-triazol-1-ylmethyl)pyridine]

EC50 (aromatase): 210 nM
Structure (SMILES): Clc1ccc(Cl)c(C(c2cccnc2)(c2cc(Cl)ccc2Cl)n2ccnc2)c1 [3-(bis[2,5-dichlorophenyl]-1H--imidazol-1-ylmethyl)pyridine]

EC50 (aromatase): 100 nM
Structure (SMILES): CC(C)(C)C(c1ccc(Cl)cc1)(c1cccnc1)n1ccnc1 (stereo not drawn) [3-(α-tert-butyl-4-chloro-α-imidazol-1-ylbenzyl)pyridine]

EC50 (aromatase): 86 nM
Structure (SMILES): Clc1ccc(C(c2cccnc2)(c2ccccc2Cl)n2ccnc2)cc1 (stereo not shown) [3-[(2-chlorophenyl)(4-chlorophenyl)-1H--imidazol-1-ylmethyl]pyridine]

EC50 (aromatase): < 50 nM
Structure (SMILES): FC(F)(F)c1cccc(C(c2ccc(Cl)cc2)(c2cccnc2)n2ccnc2)c1 (stereo not shown) [3-[(4-chlorophenyl)-1H--imidazol-1-yl-(3-trifluoromethylphenyl)methyl]pyridine]
Mean Steroid Concentration, estradiol (estrogen synthesis; [3]): 0.70 femtomoles per milligram of protein
Mean Steroid Concentration, estriol (estrogen synthesis; [3]): 0.27 femtomoles per milligram of protein
Mean Steroid Concentration, estrone (estrogen synthesis; [3]): 0.06 femtomoles per milligram of protein
Mean Uterine Weight (estrogen synthesis; [3]): 122.6 mg

EC50 (aromatase): < 50 nM
Structure (SMILES): Cc1nccn1C(c1ccc(Cl)cc1)(c1ccc(Cl)cc1)c1cccnc1 [3-[bis(4-chlorophenyl)(2-methyl-1H--imidazol-1-yl)methyl]pyridine]
Mean Steroid Concentration, estradiol (estrogen synthesis; [3]): 0.89 femtomoles per milligram of protein
Mean Steroid Concentration, estriol (estrogen synthesis; [3]): 0.38 femtomoles per milligram of protein
Mean Steroid Concentration, estrone (estrogen synthesis; [3]): 0.06 femtomoles per milligram of protein
Mean Uterine Weight (estrogen synthesis; [3]): 125.8 mg

EC50 (aromatase): 160 nM
Structure (SMILES): c1ccc(C(c2ccccc2)(c2ccncc2)n2cncn2)cc1 [4-(diphenyl-1H--1,2,4-triazole-1-ylmethyl)pyridine]

EC50 (aromatase): 120 nM
Structure (SMILES): Cc1nccn1C(c1ccccc1)(c1ccccc1)c1ccncc1 [4-[(2-methyl-1-imidazol-1-yl)diphenylmethyl]pyridine]

EC50 (aromatase): 80 nM
Structure (SMILES): Fc1ccc(C(c2ccc(Cl)cc2)n2cnnc2)cc1 (stereo not shown) [4-[(4-chlorophenyl)(4-fluorophenyl)methyl]-4H--1,2,4-triazole]

EC50 (aromatase): 30 nM
Structure (SMILES): FC(F)(F)c1ccc(C(c2ccc(Cl)cc2)(c2cncnc2)n2ccnc2)cc1 (stereo not shown) [5-[(4-chlorophenyl)-1H--imidazol-1-yl(4-trifluoromethylphenyl)methyl]pyrimidine]
